From publication PMC5538626, “Structural and functional analysis of the GABARAP interaction motif (GIM)” (EMBO Reports, 2017)
“Also recorded” adds a separate entry of the source. Ends that are not written are not given here.

Tests used:
LC3 and GABARAP families = conditions: cited from earlier work
From the text: However, despite the ever‐increasing number of LC3/GABARAP interaction partners identified and perhaps the over‐reliance on LC3B as the main marker of autophagosomes, there is now emerging distinct roles of each LC3 and GABARAP subfamily. For example, both LC3 and GABARAP families are essential for autophagy flux 29; however, LC3s were reported to be involved in phagophore extension and GABARAPs required for autophagosome closure 29. Moreover, GABARAP can activate ULK1 complex to initiate autophagy, irrespective of its conjugation status 28. Indeed, this is also reflected in C. elegans homolog ...

[1] = test system: 6xHis-tagged LC3B and 6xHis-tagged GABARAP; test: Peptide array, preference GABARAP versus LC3B (absorbance ratio); assay type: binding, human; conditions: absorbance GABARAP/LC3B or LC3B/GABARAP, cut-off 1.5-fold, mean of n = 3, Figs 1A, EV1B and C
From the text: A high number of autophagy receptors or adaptor structures have been reported, yet the basis for their selective interaction with individual members of the ATG8 family is not well understood. We speculated whether the LIR motif alone is able to confer selectivity towards a mATG8 subfamily and whether we could derive a subfamily consensus motif from analysis of known mATG8 interaction partners. To address this question, we screened an array of peptides (presented in Fig EV1A and described in Materials and Methods) with the LIR sequences of 30 known and validated autophagy receptors and adaptors (Table 1) against all six human mATG8s for binding (Figs 1A and EV1B and C). In brief, biotinylated peptides were immobilized on streptavidin‐coated 96‐well plates and incubated with His6‐tagged mATG8 proteins. After washing steps, peptide‐bound mATG8 was detected in an ELISA reader using anti‐His antibodies directly conjugated to HRP (horse radish peroxidase; Fig EV1A).
Dashed red line depicts 1.5‐fold change cut‐off.
Due to the wide range of affinities of various LIR sequences towards the LC3/GABARAP proteins, we have normalized our results by dividing values for LC3B interaction by the corresponding value for interaction with GABARAP (Fig 1A, purple bars) and vice versa (Fig 1A, blue bars) to highlight the potential subfamily selectivity of each LIR sequence tested. We classified ratios greater than 1.5‐fold as an indication of a preferential interaction towards that particular LC3 or GABARAP family member. […] Using this information, we generated a sequence plot (Fig 1B) to ascertain whether there were any common sequence features of the GABARAP‐specific interaction proteins. In addition to the 12 sequences identified in this experiment as preferential GABARAP subfamily interactors, we also included known GABARAP interactors that were not included in our screen (ALFY and KBTBD7). […] The previously identified PLEKHM1‐LIR 19 has a high degree of similarity to this sequence. […] However, it is unclear whether this is the case in vivo.
Biotinylated peptides (JPT, Germany) were immobilized on streptavidin‐coated 96‐well plates (#436014; Thermo Scientific) in 100 μl PBS containing 0.1% Tween‐20 (PT) and 1% BSA (PTB) overnight on a shaker at 8°C. After three washing steps with 200 μl PT, 100 μl of 1 μM HIS6‐tagged mATG fusion proteins isolated from E. coli in PTB was incubated with the immobilized peptides for 1 h at 8°C. After three washing steps with 200 μl PT, HIS6‐ATG8 bound to peptides was detected after 1‐h incubation with anti‐HIS‐HRP antibody (JP‐A00612; Genscript; 1:5,000 in 100 μl PTB) with the help of TMB substrate Reagent Set (BD OptEIA; 75 μl). The reaction (blue coloration) was stopped by addition of 60 μl 1 M H3PO4. Samples were analysed on a Synergy H1 ELISA reader from BioTek at 450 nm.

LC3B = conditions: p62 LIR with LC3B; no method, no reference given; cited from earlier work
From the text: Finally, we wanted to apply and subsequently verify our findings by targeted mutation of established autophagy players: p62, FUNDC1 and FIP200. Due to their impact, we specifically substituted existing residues at positions X1 and Γ of LIRs either singly or in combination to valine, thus driving the LIR sequences towards our GIM consensus sequence (Fig 1).

all six mATG8 proteins = test: Peptide array (ELISA), all six mATG8s; conditions: 450 nm, Fig 3E, n = 4
6xHis-tagged LC3B = test: Peptide array (ELISA), LC3B; conditions: for interaction with LC3B, core motif combinations: mean ± SEM n = 5, Fig 4B; for interaction with LC3B, Θ and Γ mutants: fold change over WT, n = 3, Fig EV5A
all LC3s = conditions: GST pull-down; cited from earlier work
From the text: Due to the wide range of affinities of various LIR sequences towards the LC3/GABARAP proteins, we have normalized our results by dividing values for LC3B interaction by the corresponding value for interaction with GABARAP (Fig 1A, purple bars) and vice versa (Fig 1A, blue bars) to highlight the potential subfamily selectivity of each LIR sequence tested. We classified ratios greater than 1.5‐fold as an indication of a preferential interaction towards that particular LC3 or GABARAP family member.

endogenous GABARAP [2] = test: Co-immunoprecipitation of 3xFlag-FIP200 with endogenous GABARAP, HEK293 cells; assay type: cell-based; conditions: HEK293, anti-Flag beads, Western blot; Fig 5B
Procedure: Blots were probed for the presence of endogenous GABARAP and LC3B proteins. • 3xFlag‐FIP200 WT, E703V, I705V, E703V/I705V and F702A/I705A were overexpressed in HEK293 cells and immunoprecipitated using anti‐Flag beads and subjected to SDS–PAGE and Western blotting. Blots were probed for the presence of endogenous GABARAP and LC3B proteins. • GFP‐FUNDC1 WT, E19V, L21V, E19V/L21V and Y18A/L21A were overexpressed in HEK293 cells and either treated with vehicle only (DMSO) or 20 μM CCCP for 2 h, lysed and GFP‐FUNDC1 immunoprecipitated using anti‐GFP beads (or anti‐RFP beads as control) and subjected to SDS–PAGE and Western blotting. Blots were probed for the presence of endogenous GABARAP and LC3B proteins.

endogenous GABARAP [3] = test: Co-immunoprecipitation of GFP-mCherry-p62/SQSTM1 with endogenous GABARAP, HEK293 cells; assay type: cell-based; conditions: HEK293, basal conditions, anti-RFP beads, Western blot; Fig 5A
endogenous LC3B = test: Co-immunoprecipitation of GFP-mCherry-p62/SQSTM1 with endogenous LC3B, HEK293 cells; assay type: cell-based; conditions: HEK293, basal conditions, anti-RFP beads, Western blot; Fig 5A
6xHis-tagged LC3A = test: Peptide array (ELISA), LC3A; conditions: fold change over WT, mean ± SEM n = 3, Fig EV5A
6xHis-tagged LC3C = test: Peptide array (ELISA), LC3C; conditions: fold change over WT, n = 3, Fig EV5A
[4] = test system: GABARAP family (GABARAP, GABARAP-L1, GABARAP-L2); test: Peptide array (ELISA), GABARAP family; conditions: fold change over WT, n = 3, Fig EV5A
GFP-LC3/GABARAPs = test: Co-immunoprecipitation of endogenous proteins with GFP-mATG8s in HeLa cells; conditions: 4 h KU-0063794 (10 μM) + chloroquine (20 μM), Fig 2C

Substance: DAVFDIITD [FYCO1, LIR peptide 1277–1285; in b48 the protein]
- subfamily specificity (LC3 and GABARAP families): LC3A‐specific adaptor

Substance: DDDWTHLSS [p62/SQSTM1, LIR peptide 335–343, peptide array]
- preference GABARAP versus LC3B [1]: slight preference for GABARAP
- Kd (LC3B): ~1500 nM

Substance: DDFWVRVAP [KTBD6, LIR peptide 665–673]
- preference GABARAP versus LC3B ([1]; listed as KBTBD6): strong preference for GABARAP versus LC3B
- preference GABARAP versus LC3B ([1]; listed as KBTDB6): clear specificity towards GABARAP versus LC3B

Substance: DDSYEVLDL [FUNDC1, LIR peptide 152–160 (so in the source)]
- preference GABARAP versus LC3B [1]: preferentially interacted with the LC3 group; also recorded: only LC3‐selective LIR; also recorded: only LC3B‐specific LIR

Substance: EDEAVNAQY [W635A/V638A, reference compound]
- interaction with all mATG8s, alanine scan (all six mATG8 proteins): completely disrupted all LIR–mATG8 interactions

Substance: EDEWCFLQY
- interaction with LC3B, core motif combinations (6xHis-tagged LC3B): increased the interaction of PLEKHM1‐LIR with LC3B

Substance: EDEWCVLQY
- interaction with LC3B, core motif combinations (6xHis-tagged LC3B): increased the interaction of PLEKHM1‐LIR with LC3B

Substance: EDEWVNVQY [PLEKHM1]
- preference GABARAP versus LC3B [1]: clear preference for binding to GABARAP and GABARAP‐L2 over LC3B and LC3C; also recorded: strong preference for GABARAP versus LC3
- interaction with LC3s (all LC3s): can interact with all LC3s
- ranking of mATG8 binding (all six mATG8 proteins): shows the most potent interaction, followed by GABARAP‐L1, ‐L2, LC3C and LC3A, with LC3B as the weakest interactor

Substance: EDSFVEIRM [OPTN, LIR peptide 175–183]
- subfamily preference after phosphorylation (LC3 and GABARAP families; TBK1 phosphorylation at S177): switches to LC3B
- subfamily preference (LC3 and GABARAP families; unmodified state): clearly shows preference for GABARAP

Substance: ESDWVAVRP [JMY, LIR peptide 10–18]
- preference GABARAP versus LC3B [1]: strong preference for GABARAP versus LC3B

Substance: FVTV: 3xFlag-FIP200 E703V/I705V
- interaction of FIP200 with endogenous GABARAP (endogenous GABARAP [2]): enhance the interaction between FIP200 (LIR sequence FDFETIPH) and GABARAP

Substance: L341V: GFP-mCherry-p62/SQSTM1 L341V
- interaction of p62/SQSTM1 with endogenous GABARAP (endogenous GABARAP [3]): mild effect; also recorded: little effect on LC3/GABARAP‐specific interaction
- interaction of p62/SQSTM1 with endogenous LC3B (endogenous LC3B): little effect on LC3/GABARAP‐specific interaction

Substance: SEDYIIILP [NBR1, LIR peptide 729–737]
- subfamily specificity (LC3 and GABARAP families): GABARAP‐L1‐specific receptor

Substance: TDDFVLVPH [ULK2, LIR peptide 350–358]
- preference GABARAP versus LC3B [1]: clear specificity towards GABARAP versus LC3B

Substance: TDDFVMVPA [ULK1, LIR peptide 354–362]
- preference GABARAP versus LC3B [1]: clear specificity towards GABARAP versus LC3B

Substance: V638I: PLEKHM1-LIR array peptide V638I (EDEWVNIQY; also: biotin, position not given here)
- interaction with LC3A, Θ and Γ mutants (6xHis-tagged LC3A): did not affect
- interaction with LC3B, Θ and Γ mutants (6xHis-tagged LC3B): increase the affinity
- interaction with LC3C, Θ and Γ mutants (6xHis-tagged LC3C): did not affect
- interaction with GABARAP family, Θ and Γ mutants [4]: small decrease in the interaction

Substance: V638L: PLEKHM1-LIR array peptide V638L (EDEWVNLQY; also: biotin, position not given here)
- interaction with LC3A, Θ and Γ mutants (6xHis-tagged LC3A): did not affect
- interaction with LC3B, Θ and Γ mutants (6xHis-tagged LC3B): increase the affinity
- interaction with LC3C, Θ and Γ mutants (6xHis-tagged LC3C): did not affect
- interaction with GABARAP family, Θ and Γ mutants [4]: small decrease in the interaction

Substance: endogenous p62/SQSTM1: endogenous p62/SQSTM1 protein in HeLa cells
- co-precipitation of endogenous protein with GFP-mATG8s (GFP-LC3/GABARAPs): co‐precipitated with all LC3/GABARAP to a similar extent
